The results in this text go back to patent US20100069380A1 (published 2010).

As usually defined, the melting point is the temperature, or range, at which the solid turns liquid. As to `Nc1ccc(Sc2c(O)c3c(=O)n(-c4ccccc4)c4ccccc4c3oc2=O)cc1`, the melting point was over 300 °C.
